Results published in the supplement of paper PMC10307832.

Assays:
Experiment in all cases: relative viability (nuclei count vs DMSO), 5 days (fraction); higher = more cells survive
[1] = compound: C[C@@H](Oc1cc(-c2cnn(C3CCNCC3)c2)cnc1N)c1c(Cl)ccc(F)c1Cl [Crizotinib] + CC(C)C[C@H](NC(=O)[C@H](Cc1ccccc1)NC(=O)c1cnccn1)B(O)O [Bortezomib] (partner 0.002 µM)
How it was run: (§1)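 Lung cancer cell lines in 1536-well plates got either a single drug or a fixed anchor-drug dose together with five library-drug doses (not always all listed) in √10 steps, by pin tool, on the day after seeding. Nuclei were counted after 5 days, and relative viability is the treated-to-vehicle ratio of nuclei counts. Values are medians of duplicate plates.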

[2] = compound: CC(C)C[C@H](NC(=O)[C@H](CCc1ccccc1)NC(=O)CN1CCOCC1)C(=O)N[C@@H](Cc1ccccc1)C(=O)N[C@@H](CC(C)C)C(=O)[C@@]1(C)CO1 [Carfilzomib] + Cc1cc(Nc2cc(N3CCN(C)CC3)nc(Sc3ccc(NC(=O)C4CC4)cc3)n2)n[nH]1 [Tozasertib] (partner 0.1 µM)
How it was run: as §1

[3] = compound: CC(C)C[C@H](NC(=O)[C@H](CCc1ccccc1)NC(=O)CN1CCOCC1)C(=O)N[C@@H](Cc1ccccc1)C(=O)N[C@@H](CC(C)C)C(=O)[C@@]1(C)CO1 [Carfilzomib] + COc1cc2c(Oc3ccc(NC(=O)C4(C(=O)Nc5ccc(F)cc5)CC4)cc3F)ccnc2cc1OCCCN1CCOCC1 [Foretinib] (partner 0.25 µM)
How it was run: as §1

[4] = compound: CC(C)C[C@H](NC(=O)[C@H](CCc1ccccc1)NC(=O)CN1CCOCC1)C(=O)N[C@@H](Cc1ccccc1)C(=O)N[C@@H](CC(C)C)C(=O)[C@@]1(C)CO1 [Carfilzomib] + Nc1nc2[nH]cc(CCc3ccc(C(=O)N[C@@H](CCC(=O)O)C(=O)O)cc3)c2c(=O)[nH]1 [Pemetrexed] (partner 0.2 µM)
How it was run: as §1

Row | Cell Line | relative viability ([1]; first compound 0.01 µM) | relative viability ([1]; first compound 0.03162 µM) | relative viability ([1]; first compound 0.1 µM) | relative viability ([1]; first compound 0.3162 µM) | relative viability ([1]; first compound 1 µM) | relative viability ([2]; first compound 0.001 µM) | relative viability ([2]; first compound 0.003162 µM) | relative viability ([2]; first compound 0.01 µM) | relative viability ([2]; first compound 0.03162 µM) | relative viability ([2]; first compound 0.1 µM) | relative viability ([3]; first compound 0.001 µM) | relative viability ([3]; first compound 0.003162 µM) | relative viability ([3]; first compound 0.01 µM) | relative viability ([3]; first compound 0.03162 µM) | relative viability ([3]; first compound 0.1 µM) | relative viability ([4]; first compound 0.001 µM) | relative viability ([4]; first compound 0.003162 µM) | relative viability ([4]; first compound 0.01 µM) | relative viability ([4]; first compound 0.03162 µM) | relative viability ([4]; first compound 0.1 µM)
1 | HCC-78 | 0.437 | 0.466 | 0.472 | 0.399 | 0.447 | 0.356 | 0.61 | 0.401 | 0.358 | 0.287 | 0.541 | 0.576 | 0.581 | 0.571 | 0.322 | 0.876 | 0.868 | 0.904 | 0.967 | 0.9
2 | HCC-366 | 1.01 | 1.04 | 1.02 |  | 1.15 | 0.0847 | 0.132 | 0.185 | 0.106 | 0.0351 | 0.933 | 0.963 | 0.916 | 0.648 | 0.121 | 0.158 | 0.149 | 0.2 | 0.17 | 0.039
3 | HCC-827 | 0.887 | 1.06 | 1.14 | 0.999 | 0.931 | 0.366 | 0.397 | 0.47 | 0.411 | 0.265 | 1.09 | 1.06 | 1.08 | 0.928 | 0.387 | 0.252 | 0.267 | 0.277 | 0.254 | 0.155
4 | HOP-62 | 0.822 | 0.788 | 1.03 | 0.523 | 0.584 | 0.37 | 0.405 | 0.385 | 0.19 | 0.0741 | 1.12 | 1.13 | 0.938 | 0.328 | 0.0784 | 0.404 | 0.304 | 0.417 | 0.0823 | 0.063
5 | IA-LM | 0.848 | 0.754 | 0.735 | 0.744 | 0.704 |  |  |  |  |  | 1.22 | 1.23 | 0.899 | 0.0144 | 0.0167 |  |  |  |  | 
6 | LC-2-ad | 1.06 | 1.07 | 1 |  | 1.04 | 0.466 | 0.453 | 0.498 | 0.279 | 0.24 | 0.881 | 1.01 | 1.08 | 0.903 | 0.221 | 0.275 | 0.302 | 0.28 | 0.273 | 0.232
7 | LK-2 |  |  |  |  |  | 0.181 | 0.172 | 0.159 | 0.179 | 0.196 | 1.24 | 1.25 | 1.42 | 0.144 | 0.16 | 0.304 | 0.295 | 0.273 | 0.0987 | 0.0939
8 | NCI-H358 |  |  |  |  |  | 0.0998 | 0.0949 | 0.127 | 0.057 | 0.0759 | 0.688 | 1.01 | 0.63 | 0.0762 | 0.0649 | 0.169 | 0.164 | 0.173 | 0.136 | 0.102
9 | NCI-H522 |  |  |  |  |  | 0.491 | 0.6 | 0.653 | 0.349 | 0.346 |  |  |  |  |  | 1.19 | 0.906 | 0.963 | 0.717 | 0.339
10 | NCI-H727 | 0.569 | 0.806 | 1.01 | 0.962 | 0.988 | 0.708 | 0.754 | 0.602 | 0.438 | 0.378 | 0.758 | 0.891 | 0.996 | 0.617 | 0.397 |  |  |  |  | 
11 | NCI-H1299 | 1.04 | 1.07 | 1 | 1.02 | 0.996 |  |  |  |  |  | 1.03 | 1.02 | 1.14 | 0.597 | 0.117 |  |  |  |  | 
12 | NCI-H1395 |  |  |  |  |  | 0.746 | 0.743 | 0.696 | 0.505 | 0.304 | 0.981 | 1.07 | 0.954 | 0.527 | 0.329 |  | 0.873 | 0.756 | 0.33 | 0.287
13 | NCI-H1563 | 0.744 | 0.859 | 0.857 | 0.779 | 0.832 |  |  |  |  |  | 0.927 | 1.08 | 0.968 | 0.828 | 0.517 | 0.685 | 0.773 | 0.727 | 0.82 | 0.498
14 | NCI-H1623 |  |  |  |  |  | 0.404 | 0.443 | 0.515 | 0.434 | 0.294 | 0.838 | 0.906 | 1.14 | 0.455 | 0.514 |  |  |  |  | 
15 | NCI-H1648 |  |  |  |  |  |  | 0.556 | 0.495 | 0.37 | 0.248 |  |  |  |  |  | 0.717 | 0.671 | 0.805 | 0.416 | 0.263
16 | NCI-H1703 | 0.365 | 0.301 | 0.226 | 0.319 | 0.322 |  |  |  |  |  |  | 0.421 | 0.231 | 0.126 | 0.154 |  |  |  |  | 
17 | NCI-H1792 | 0.955 | 0.983 | 1.01 | 0.931 | 0.917 |  |  |  |  |  |  |  |  |  |  |  | 0.937 | 0.773 | 0.49 | 0.0813
18 | NCI-H1944 |  |  |  |  |  | 0.248 | 0.236 | 0.253 | 0.265 | 0.16 | 0.932 | 0.955 | 0.949 | 0.931 | 0.337 | 0.615 | 0.664 | 0.628 | 0.563 | 0.242
19 | NCI-H2170 |  |  |  |  |  | 0.751 | 0.73 | 0.749 | 0.659 | 0.173 | 1.05 | 1.02 | 1.06 | 1.06 | 0.397 | 0.262 | 0.277 | 0.254 | 0.24 | 0.183
20 | NCI-H2342 |  |  |  |  |  | 0.495 | 0.473 | 0.579 | 0.543 | 0.385 | 1.04 | 1.06 | 1.08 | 0.988 | 0.621 | 0.732 | 0.786 | 0.853 | 0.78 | 0.449
21 | SK-MES-1 |  |  |  |  |  | 0.939 | 1.07 | 0.998 | 0.725 | 0.136 | 0.851 | 0.954 | 0.918 | 0.97 | 0.283 | 1.02 | 1.1 | 1.14 | 0.786 | 0.177
22 | SW 900 |  |  |  |  |  | 0.508 | 0.682 | 0.142 | 0.149 | 0.164 | 1.01 | 0.999 | 0.315 | 0.0988 | 0.116 |  | 0.497 | 0.176 | 0.152 | 0.216
